Laboratory results published in patent publication US12649723B2, “Carbonohydrazonoyl dicyanide compounds comprising 2 or more aryl or heteroaryl connected via linker and use thereof” (KOREA INSTITUTE OF SCIENCE AND TECHNOLOGY, priority 2020, dated 2026).

What was measured:
Tau-BiFC cells = test: Cell viability (cytotoxicity) in tau-BiFC cells, count of stained nuclei; assay type: cell-based; settings: Forskolin-only group = 100% cell viability; for Cell viability (% @10 μM): compound 10 μM; for Cell viability: compounds marked *: measured at 3 μM
Experimental: (§1) In order to select novel tau protein aggregation-inhibiting substances, tau-BiFC cell model, in which formation of tau oligomers in living cells is easily observed, was used. Tau-BiFC cells were aliquoted into a 384-well plate. On the next day, the cells were treated with each of the compounds prepared according to Examples 1 to 175 at concentrations of 1 μM, 3 μM, and 10 μM, together with Forskolin (at a treatment concentration of 30 μM), which is a compound inducing tau protein aggregation by activating tau […] PKA. After 48 hours, nuclei in the cells were stained using Hoechst (at a treatment concentration of 2 μg/mL), and BiFC fluorescence intensity was automatically measured using Operetta (PerkinElmer) to count stained nuclei in each well out of the entire well plate. The group treated only with Forskolin, which induces tau protein aggregation, was set to a reference point of a 100% tau protein-aggregated state, and the effects of the compounds were confirmed using the equation “BiFC fluorescence intensity due to compound synthesized according to embodiment of present invention/(fluorescence intensity of control group treated only with Forskolin inducing tau protein aggregation−fluorescence intensity of untreated control group)×100”. Furthermore, the degree of cytotoxicity induced by the newly synthesized compound was also measured based on the 100% cell viability of the group treated only with Forskolin as a reference, and the cytotoxicity value of each compound was calculated using the equation “(number of stained nuclei in group treated with compound/number of stained nuclei in group treated with Forskolin)×100”. Based on the treatment results, substances inhibiting intracellular tau protein aggregation were selected from a series of candidate groups showing a tau protein aggregation inhibition rate of 70% or more and cell viability of 100% at a compound treatment concentration of 10 μM or more.
(§2) In order to evaluate dose-dependent tau protein aggregation inhibition effects of the compounds selected according to Experimental Example 1 on tau protein aggregation, tau-BiFC cells were treated with the selected compounds at concentrations of 0.03 μM, […], 0.3 μM, 1 μM, 3 μM, 10 μM, and 30 μM, respectively, together with Forskolin (at a treatment concentration of 30 μM), which is a tau protein aggregation inducing substance. After 48 hours, tau protein aggregation reaction and degrees of cytotoxicity were analyzed by observing images of the cells. IC50 and toxicity of the compounds were analyzed by way of nonlinear regression analysis of prism software (Graph Pad).

tau protein = molecular target: T1, tau protein (Homo sapiens, UniProt P10636); test: Tau-BiFC cell model: inhibition of tau protein aggregation; assay type: cell-based; settings: for remaining activity at 10 µM / remaining activity at 3 µM: 48 h, Forskolin-only group = 100% tau protein-aggregated state; for remaining activity at 10 µM: compound 10 μM, BiFC fluorescence, read-out: Response (% @10 μM); for IC50: Tau BiFC in cells, with Forskolin 30 μM, 48 hours; for remaining activity at 3 µM: compounds marked *: measured at 3 μM, read-out: Response
T1 construct: fused on or other part: Split fluorescent-protein halves for BiFC are fused to tau; In the published tau-BiFC line these are Venus VN173 and VC155
Experimental: as §1, §2

T1 sequence (P10636 2-441 isoform P10636-8 limits assumed): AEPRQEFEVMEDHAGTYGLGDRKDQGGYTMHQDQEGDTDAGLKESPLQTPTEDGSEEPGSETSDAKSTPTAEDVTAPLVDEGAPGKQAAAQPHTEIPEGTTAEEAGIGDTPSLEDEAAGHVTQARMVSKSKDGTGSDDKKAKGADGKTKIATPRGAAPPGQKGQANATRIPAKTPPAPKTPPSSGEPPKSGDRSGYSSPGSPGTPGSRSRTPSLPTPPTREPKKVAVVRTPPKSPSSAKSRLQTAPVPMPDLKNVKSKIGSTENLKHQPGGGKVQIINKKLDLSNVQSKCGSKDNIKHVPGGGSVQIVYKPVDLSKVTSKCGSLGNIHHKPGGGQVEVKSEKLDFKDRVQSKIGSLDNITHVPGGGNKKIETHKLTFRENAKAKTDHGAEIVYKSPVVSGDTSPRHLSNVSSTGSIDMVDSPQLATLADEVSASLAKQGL

| SMILES | Cell viability (% @10 μM) (Tau-BiFC cells) | remaining activity at 10 µM (tau protein) | IC50 (tau protein) | Cell viability (Tau-BiFC cells) | remaining activity at 3 µM (tau protein) |
| --- | --- | --- | --- | --- | --- |
| Cc1cnc(NS(=O)(=O)c2ccc(NN=C(C#N)C#N)cc2)cn1 [Compound 67, (4-(N-(5-methylpyrazin-2-yl)sulfamoyl)phenyl)carbonohydrazonoyl dicyanide] | 108.4% | 68.2% | – | – | – |
| Cc1ccc(C(=O)Nc2ccc(NN=C(C#N)C#N)cn2)cc1F [Compound 22, (6-(3-fluoro-4-methylbenzamido)pyridin-3-yl)carbonohydrazonoyl dicyanide] | 105.8% | 0% | 320 nM | – | – |
| Cc1cc(NN=C(C#N)C#N)ccc1Oc1ccncc1 [Compound 79, (3-methyl-4-(pyridin-4-yloxy)phenyl)carbonohydrazonoyl dicyanide] | 115.7% | 65.9% | – | – | – |
| N#CC(C#N)=NNc1ccc(Oc2nccs2)cc1 [Compound 116, (4-(thiazol-2-yloxy)phenyl)carbonohydrazonoyl dicyanide] | 124% | 0% | 1400 nM | – | – |
| Cc1cc(NN=C(C#N)C#N)ccc1NC(=O)c1cscn1 [Compound 111, (3-methyl-4-(thiazole-4-carboxamido)phenyl)carbonohydrazonoyl dicyanide] | 136.4% | 0% | 500 nM | – | – |
| COc1ccc(NS(=O)(=O)c2ccc(NN=C(C#N)C#N)cc2)cc1 [Compound 66, (4-(N-(4-methoxyphenyl)sulfamoyl)phenyl)carbonohydrazonoyl dicyanide] | 123.9% | 61.2% | – | – | – |
| N#CC(C#N)=NNc1ccc(Oc2cccc(F)c2)cc1 [Compound 94, (4-(3-fluorophenoxy)phenyl)carbonohydrazonoyl dicyanide] | 33.6% | 0% | 1280 nM | – | – |
| COc1ccc(NC(=O)c2ccc(NN=C(C#N)C#N)cn2)cc1 [Compound 35, (6-(4-methoxyphenylcarbamoyl)pyridin-3-yl)carbonohydrazonoyl dicyanide] | 97.9% | 34.2% | – | – | – |
| N#CC(C#N)=NNc1ccc(NS(=O)(=O)c2cccnc2)nc1 [Compound 60, (6-(pyridin-3-sulfonamido)pyridin-3-yl)carbonohydrazonoyl dicyanide] | 116.9% | 90.2% | – | – | – |
| COc1cc(NN=C(C#N)C#N)ccc1OCc1ncccn1 [Compound 161, (3-methoxy-4-(pyrimidin-2-ylmethoxy)phenyl)carbonohydrazonoyl dicyanide] | – | – | 109 nM | 119% | -17% |
| N#CC(C#N)=NNc1ccc(Oc2cnccn2)cc1 [Compound 84, (4-(pyrazin-2-yloxy)phenyl)carbonohydrazonoyl dicyanide] | 111.4% | 0% | 2120 nM | – | – |
| COc1cc(C(=O)Nc2ccc(C)nc2)ccc1NN=C(C#N)C#N [Compound 57, (2-methoxy-4-(6-methylpyridin-3-ylcarbamoyl)phenyl)carbonohydrazonoyl dicyanide] | 108.6% | 51.7% | – | – | – |
| N#CC(C#N)=NNc1ccc(NC(=O)c2ccccc2)nc1 [Compound 15, (6-benzamidopyridin-3-yl)carbonohydrazonoyl dicyanide] | 79.9% | 0% | 90 nM | – | – |
| N#CC(C#N)=NNc1ccc(OCc2ccccc2)cc1 [Compound 117, (4-(benzyloxy)phenyl)carbonohydrazonoyl Dicyanide] | 126.0% | 16.6% | 1240 nM | – | – |
| CN(N=C(C#N)C#N)c1ccc(Oc2ccccc2)c(C(F)(F)F)c1 [Compound 78, methyl(4-phenoxy-3-(trifluoromethyl)phenyl)carbonohydrazonoyl dicyanide] | 74% | 69.6% | – | – | – |
| Cc1cnc(C(=O)Nc2ccc(NN=C(C#N)C#N)cc2Cl)cn1 [Compound 11, (3-chloro-4-(5-methylpyrazine-2-carboxamido)phenyl)carbonohydrazonoyl dicyanide] | 82.5% | 0% | 110 nM | – | – |

| SMILES | Cell viability (% @10 μM) (Tau-BiFC cells) | remaining activity at 10 µM (tau protein) | IC50 (tau protein) | Cell viability (Tau-BiFC cells) | remaining activity at 3 µM (tau protein) |
| --- | --- | --- | --- | --- | --- |
| N#CC(C#N)=NNc1ccc(OCc2ccc(C(F)(F)F)cc2)c(C(F)(F)F)c1 [Compound 98, (3-(trifluoromethyl)-4-(4-(trifluoromethyl)benzyloxy)phenyl)carbonohydrazonoyl dicyanide] | 26.9% | 0% | 250 nM | – | – |
| N#CC(C#N)=NNc1ccc(C(=O)Nc2cccnc2)cc1 [Compound 49, (4-(pyridin-3-ylcarbamoyl)phenyl)carbonohydrazonoyl dicyanide] | 117.2% | 75.9% | – | – | – |
| Cc1cnc(NC(=O)c2ccc(NN=C(C#N)C#N)cn2)cn1 [Compound 36, (6-(5-methylpyrazin-2-ylcarbamoyl)pyridin-3-yl)carbonohydrazonoyl dicyanide] | 86.9% | 35.9% | – | – | – |
| N#CC(C#N)=NNc1ccc(Oc2ccccc2)cn1 [Compound 70, (5-phenoxypyridin-2-yl)carbonohydrazonoyl dicyanide] | 94.5% | 0% | 310 nM | – | – |
| N#CC(C#N)=NNc1ccc(NS(=O)(=O)c2ccc(F)cc2)nc1 [Compound 64, (6-(4-fluorophenylsulfonamido)pyridin-3-yl)carbonohydrazonoyl dicyanide] | 114.2% | 56% | – | – | – |
| N#CC(C#N)=NNc1ccc(OCc2ccccc2)nc1 [Compound 95, (6-(benzyloxy)pyridin-3-yl)carbonohydrazonoyl dicyanide] | 71.9% | 0% | – | – | – |
| N#CC(C#N)=NNc1ccc(Oc2cccnn2)cc1 [Compound 92, (4-(pyridazin-3-yloxy)phenyl)carbonohydrazonoyl dicyanide] | 116.8% | 0% | 550 nM | – | – |
| Cn1cc(S(=O)(=O)Nc2ccc(NN=C(C#N)C#N)cn2)cn1 [Compound 61, (6-(1-methyl-1H-pyrazole-4-sulfonamido)pyridin-3-yl)carbonohydrazonoyl dicyanide] | 112.7% | 109% | – | – | – |
| Cc1ccc(NC(=O)c2ccc(NN=C(C#N)C#N)c(C)c2)cn1 [Compound 55, (2-methyl-4-(6-methylpyridin-3-ylcarbamoyl)phenyl)carbonohydrazonoyl dicyanide] | 116.1% | 65.6% | – | – | – |
| COc1cc(NN=C(C#N)C#N)ccc1C(=O)Nc1ccc(C)cc1 [Compound 108, (3-methoxy-4-(p-tolylcarbamoyl)phenyl)carbonohydrazonoyl Dicyanide] | 121.8% | 0% | 1400 nM | – | – |
| Cc1ccc(NC(=O)c2ccc(NN=C(C#N)C#N)cc2C)cn1 [Compound 53, (3-methyl-4-(6-methylpyridin-3-ylcarbamoyl)phenyl)carbonohydrazonoyl dicyanide] | 116.1% | 22.9% | – | – | – |
| N#CC(C#N)=NNc1ccc(OCc2nc3ccccc3s2)cc1 [Compound 129, (4-(benzo[d]thiazol-2-ylmethoxy)phenyl)carbonohydrazonoyl dicyanide] | 106.9% | 0% | 200 nM | – | – |
| N#CC(C#N)=NNc1ccc(NC(=O)c2cnc3ccccc3n2)nc1 [Compound 32, (6-(quinoxaline-2-carboxamido)pyridin-3-yl)carbonohydrazonoyl dicyanide] | 145.3% | 0% | 310 nM | – | – |
| Cc1cnc(C(=O)Nc2ccc(NN=C(C#N)C#N)cc2F)cn1 [Compound 7, (3-fluoro-4-(5-methylpyrazine-2-carboxamido)phenyl)carbonohydrazonoyl dicyanide] | 30.6% | 0% | – | – | – |
| COc1cc(NN=C(C#N)C#N)ccc1OCc1cscn1 [Compound 167, (3-methoxy-4-(thiazol-4-ylmethoxy)phenyl)carbonohydrazonoyl dicyanide] | – | – | 10 nM | 118% | -38% |
